From patent US8518896B2, “Treatment of cancers of the blood using selected glycomimetic compounds” (Glycomimetics, Inc., priority 2008, dated 2013) come the findings set out here.

The subject of the data set is neutrophils. To be noted: mice; 5-FU 150 mg/kg i.p. or cyclophosphamide 300 mg/kg i.p.; lasts for at least one week. Here is the method: At varying time points after treatment, blood samples are taken from the mice and analyzed for different cell types including neutrophils.
As diagrammed in FIG. 10, mice are treated with Compound #2 for 14 days by intraperitoneal injections (50 mg/kg) twice a day. On day 12 within this treatment period, a cohort of mice receives an injection of a chemotherapeutic drug; either 5-fluorouracil (150 mg/kg i.p.) or cyclophosphamide (300 mg/kg i.p.). On the third day after treatment with Compound #2, blood is obtained by cardiac puncture from one cohort of mice to determine a complete blood count (CBC). Other cohorts of mice are bled and analyzed (CBC) on days 5, 7, 9 and 15 after Compound #2 treatment.

Regarding `O=P1(N(CCCl)CCCl)NCCCO1` (stereo not shown) [cyclophosphamide], the “neutropenia caused by the chemotherapeutic drug” value is reported as “severe neutropenia”.
